Laboratory results: US20070117743A1, “New antitumoral compounds” (priority 2003, published 2007)

Columns and labels:
Assay type in all cases: cell-based, human
[1] = SRB colorimetric assay of cell growth and viability, HMEC-1; details: human, HMEC-1 cells; 48 hours exposure; read-out: LC50 H-MEC-1
From the text: (§1) The finality of this assay is to interrupt the growth of a “in vitro” tumor cell culture by means a continued exhibition of the cells to the sample to be testing.
(§2) A colorimetric type of assay, using sulforhodamine B (SRB) reaction has been adapted for a quantitative measurement of cell growth and viability [following the technique described by Philip Skehan, et al. (1990), New colorimetric cytotoxicity assay for anticancer drug screening, J. Natl. Cancer Inst., 82:1107-1112].
(§3) This form of the assay employs 96 well cell culture microplates of 9 mm diameter (Faircloth, 1988; Mosmann, 1983). Most of the cell lines are obtained from American Type Culture Collection (ATCC) derived from different human cancer types.
(§4) Cells are maintained in RPMI 1640 10% FBS, supplemented with 0.1 g/l penicillin and 0.1 g/l streptomycin sulfate and then incubated at 37° C., 5% CO2 and 98% humidity. For the experiments, cells were harvested from subconfluent cultures using trypsin and resuspended in fresh medium before plating.
(§5) Cells are seeded in 96 well microtiter plates, at 5×10^3 cells per well in aliquots of 195 μL medium, and they are allowed to attach to the plate surface by growing in drug free medium for 18 hours. Afterward, samples are added in aliquots of 5 μL in a ranging from 10 to 10^−8 μg/mL, dissolved in DMSO:EtOH:PBS (0.5:0.5:99). After 48 hours exposure, the antitumor effect are measured by the SRB methodology: cells are fixed by adding 50 μL of cold 50% (wt/vol) trichloroacetic acid (TCA) and incubating for 60 minutes at 4° C. Plates are washed with deionized water and dried. One hundred μL of SRB solution (0.4% wt/vol in 1% acetic acid) is added to each microtiter well and incubated for 10 minutes at room temperature. […] Optical densities are read on a automated spectrophotometric plate reader at a single wavelength of 490 nm.
(§6) The values for mean+/− SD of data from triplicate wells are calculated. Some parameters for cellular responses can be calculated: GI=growth inhibition, TGI=total growth inhibition (cytostatic effect) and LC=cell killing (cytotoxic effect).

HMEC-1 = experiment: as above; details: 48 hours exposure
From the text: as §1, §2, §3, §4, §5, §6

DU-145 = experiment: SRB colorimetric assay of cell growth and viability, DU-145; details: 48 hours exposure
A-549 = experiment: SRB colorimetric assay of cell growth and viability, A-549; details: 48 hours exposure
SK-OV-3 = experiment: SRB colorimetric assay of cell growth and viability, SK-OV-3; details: 48 hours exposure
From the text: as §1, §2, §3, §4
Cells are seeded in 96 well microtiter plates, at 5×10^3 cells per well in aliquots of 195 μL medium, and they are allowed to attach to the plate surface by growing in drug free medium for 18 hours. Afterward, samples are added in aliquots of 5 μL in a ranging from 10 to 10^−8 μg/mL, dissolved in DMSO:EtOH:PBS (0.5:0.5:99). After 48 hours exposure, the antitumor effect are measured by the SRB methodology: cells are fixed by adding 50 μL of cold 50% (wt/vol) trichloroacetic acid (TCA) and incubating for 60 minutes at 4° C. Plates are washed with deionized water and dried. One hundred μL of SRB solution (0.4% wt/vol in 1% acetic acid) is added to each microtiter well and incubated for 10 minutes at room temperature. Unbound SRB is removed by washing with 1% acetic acid. Plates are air dried and bound stain is solubilized with Tris buffer. Optical densities are read on a automated spectrophotometric plate reader at a single wavelength of 490 nm.
as §6

SK-MEL-28 = experiment: SRB colorimetric assay of cell growth and viability, SK-MEL-28; details: 48 hours exposure
HT-29 = experiment: SRB colorimetric assay of cell growth and viability, HT-29; details: 48 hours exposure
PANC-1 = experiment: SRB colorimetric assay of cell growth and viability, PANC-1; details: 48 hours exposure
LNCaP = experiment: SRB colorimetric assay of cell growth and viability, LNCaP; details: 48 hours exposure
IGROV-1 = experiment: SRB colorimetric assay of cell growth and viability, IGROV-1; details: 48 hours exposure
SK-BR-3 = experiment: SRB colorimetric assay of cell growth and viability, SK-BR-3; details: 48 hours exposure
LoVo-Dox = experiment: SRB colorimetric assay of cell growth and viability, LoVo-Dox; details: 48 hours exposure
Outline: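 Absorbance at 490 nm of Tris-solubilized sulforhodamine B gives the read-out after cells are fixed with cold 50% TCA for 60 min at 4° C. Compound exposure lasts 48 hours over 10 to 10^−8 μg/mL. Growth inhibition, total growth inhibition and lethal concentration are calculated from triplicate wells.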

K-562 = experiment: SRB colorimetric assay of cell growth and viability, K-562; details: 48 hours exposure
LoVo = experiment: SRB colorimetric assay of cell growth and viability, LoVo; details: 48 hours exposure
IGROV-ET = experiment: SRB colorimetric assay of cell growth and viability, IGROV-ET; details: 48 hours exposure

In the case of `C/C=C1\NC(=O)[C@H](Cc2ccccc2)NC(=O)[C@@H](C(C)C)NC(=O)[C@@H]([C@@H](C)CC)NC(=O)[C@H](NC(=O)[C@H](NC(=O)[C@H](CCCCN)NC(=O)[C@H]2CCCN2C(=O)[C@H](NC(=O)[C@@H](NC(=O)[C@@H](NC(=O)[C@H](NC(=O)CCCC(C)C)C(C)C)[C@@H](C)O)C(C)C)C(C)C)[C@@H](C)CC)[C@@H](C)OC(=O)[C@H](C(C)C)NC1=O` [Compound 5, [Lys^8]-KF], the CC50 at 48 h [1] is reported as 44.6 nM, the “TGI H-MEC-1” value (HMEC-1) is reported as 2.63E−08 Molar and the GI50 (HMEC-1; read-out: GI50 H-MEC-1) is reported as 15.6 nM. The GI50 (DU-145) was 18.1 nM, the LC50 (concentration causing 50% net cell kill) (DU-145) was 56.9 nM and the “TGI DU-145” value (DU-145) was 3.20E−08 Molar. For the same molecule, the “TGI A-549” value (A-549) was 2.75E−07 Molar, the GI50 (A-549; read-out: GI50 A-549) was 129 nM and the CC50 (A-549; read-out: LC50 A-549) was 582 nM. The “TGI SKOV-3” value (SK-OV-3) was 4.08E−07 Molar, the GI50 (SK-OV-3; read-out: GI50 SKOV-3) was 196 nM and the CC50 (SK-OV-3; read-out: LC50 SKOV-3) was 1490 nM. The GI50 (SK-MEL-28) was 811 nM, the “TGI MEL-28” value (SK-MEL-28) was 1.87E−06 Molar and the CC50 (SK-MEL-28; read-out: LC50 MEL-28) was 4300 nM. The “TGI HT-29” value (HT-29) was 2.81E−07 Molar, the GI50 (HT-29; read-out: GI50 HT-29) was 158 nM and the CC50 (HT-29; read-out: LC50 HT-29) was 498 nM. For the same molecule, the GI50 (PANC-1) was 1140 nM, the “TGI PANC-1” value (PANC-1) was 2.37E−06 Molar and the CC50 (PANC-1; read-out: LC50 PANC-1) was 4920 nM. The “TGI LN-caP” value (LNCaP) was 2.61E−08 Molar, the GI50 (LNCaP; read-out: GI50 LN-caP) was 14.2 nM and the CC50 (LNCaP; read-out: LC50 LN-caP) was 47.9 nM. The GI50 (IGROV-1) was 183 nM, the LC50 (concentration causing 50% net cell killing) (IGROV-1) was 1230 nM and the “TGI IGROV” value (IGROV-1) was 3.71E−07 Molar. The GI50 (SK-BR-3) was 169 nM, the LC50 (SK-BR-3) was 554 nM and the “TGI SK-BR-3” value (SK-BR-3) was 3.06E−07 Molar. The GI50 (LoVo-Dox) was 162 nM, the “TGI LOVO-DOX” value (LoVo-Dox) was 2.98E−07 Molar and the CC50 (LoVo-Dox; read-out: LC50 LOVO-DOX) was 552 nM. The GI50 (K-562) was 771 nM, the “TGI K-562” value (K-562) was 1.65E−06 Molar and the CC50 (K-562; read-out: LC50 K-562) was 3550 nM. For the same molecule, the GI50 (LoVo) was 155 nM, the “TGI LOVO” value (LoVo) was 2.71E−07 Molar and the CC50 (LoVo; read-out: LC50 LOVO) was 478 nM. For the same molecule, the GI50 (IGROV-ET) was 240 nM, the “TGI IGROV-ET” value (IGROV-ET) was 4.88E−07 Molar and the CC50 (IGROV-ET; read-out: LC50 IGROV-ET) was 2830 nM.
